Measurements from patent publication US11129782B2, “Derivatives of PPD useful for coloring hair and skin” (National University of Singapore, priority 2017, dated 2021).

Columns and labels:
HaCaT cells = assay: In vitro cell cytotoxicity (MTT) assay on HaCaT cells; type: cell-based, human; details: Homo sapiens, HaCaT
Text: HaCaT (human, adult, low calcium, high temperature, human adult skin keratinocytes) cells were obtained from the IMB (Institute of Medical Biology) Skin Cell Bank. Fetal bovine serum (FBS), Dulbecco's minimum essential medium (DMEM) and trypsin EDTA solution were purchased from GE healthcare life sciences, Utah. Penicillin/streptomycin, dimethyl sulfoxide (DMSO), and phosphate buffered saline (PBS) were from Fisher Scientific (Singapore). Para-phenylenediamine (PPD) was purchased from Sigma Aldrich (Singapore). PPD analogues such as Dimer, trimer, ethyl hexyl para-phenylenediamine (EHPPD), hexyl para-phenylenediamine (HPPD), Bandrowski base (BB) were synthesized in house.
Cell viability was essentially determined using the MTT assay as described in the literature. The HaCaT cells were grown in DMEM with 10% FBS and 1% penicillin/streptomycin. The cells in T-75 cm^2 culture flasks were incubated with 5% CO2 at 37° C. in a humidified incubator. The HaCaT cells were grown to expected confluency and then they were harvested by trypsinizing the cell with 0.25% trypsin/EDTA and incubated at 37° C. for 5 min to obtain the complete cell detachment. After the incubation, cell pellets were resuspended, and washed twice with 1×PBS. The cell suspension in 1×PBS was counted and adjusted to 1×10^5/mL. A HaCaT keratinocyte suspension (100 μL in 1×PBS) with a cell concentration of 1×10^5 cells/mL) and a test solution (100 μL in milli-Q water) were combined in each well of two 96-well plates. Test solutions with a desired concentration were prepared by serial dilutions of the stock solutions with 1×PBS.
For the cytotoxicity experiment, cells were seeded at a density of 5×10^3 in 200 ul of medium into each well of 96-well plates. Cells were seeded as three sets of four replicates for each concentration. After 24 h of incubation, the cells were washed with PBS and cultured for 72 h with 200 ul of 10% FBS containing DMEM medium, together with the different concentrations of the test compounds ranging from 500 μM to 1.9 μM for PPD and analogues 1-5 and standard in a serial dilution. Then the medium was removed and 100 μl of MTT [3-(4,5-dimethylthiazol-2yl)-2,5-diphenyl-2H-tetrazolium bromide](1 mg/ml) (Alfa Aesar, Singapore) in PBS was added. At the end of 4 h incubation, the plates were removed from the incubator and plates were shaken for 5 min. The absorbance at 570 nm was determined using Bio-Tek plate reader. The cell viability rates were calculated from absorbance readings and represented as percentages of control value (untreated cells).

[1] = system: lysine peptide (Ac-RFAAKAA-COOH); assay: Direct Peptide Reactivity Assay, lysine peptide; details: for % of Lysine depletion, Avg / % of Lysine depletion, Rep 2 / % of Lysine depletion, Rep 3 / Reactivity Class: 1:50; for % of Lysine depletion, Rep 1: peptide 0.02 mM : test chemical 1 mM (1:50); for Reactivity Class: lysine
Description: (§1) The mass spectrometric analysis was performed by use of a AB SCIEX QTRAP 5500 tandem mass spectrometry (MS/MS) system (AB SCIEX, Framingham, Mass., USA) operating in triple quadrupole positive mode (ESI+) equipped with an AB Sciex Turbo Ion Spray interface. Acquisition and analysis of data were performed with Analyst software ver. 1.6.2 (Applied Biosystems).

[2] = system: cysteine peptide (Ac-RFAACAA-COOH); assay: Direct Peptide Reactivity Assay, cysteine peptide; details: for % of Cysteine depletion, Avg / % of Cysteine depletion, Rep 2 / % of Cysteine depletion, Rep 3 / Reactivity Class: 1:10; for % of Cysteine depletion, Rep 1: peptide 0.02 mM : test chemical 0.2 mM (1:10); for Reactivity Class: cysteine
Description: For cysteine DPRA, an additional step was performed.
as §1

For `Cc1ccc(CNc2ccc(Nc3ccc(NCc4ccc(C)cc4)cc3)cc2)cc1` [PPD derivative 13, N^4-(p-tolylmethyl)-N^1-[4-(p-tolylmethylamino)phenyl]benzene-1,4-diamine], the IC50 (HaCaT cells; 72 h, 72 h incubation, MTT) was 5.2 µM.

`COc1ccc(CNc2ccc(Nc3ccc(NCc4ccc(OC)cc4)cc3)cc2)cc1` [PPD derivative 12] gave an IC50 (HaCaT cells; 72 h, 72 h incubation, MTT) of 4.3 µM.

Compound `Oc1ccc(CNc2ccc(Nc3ccc(NCc4ccc(O)cc4)cc3)cc2)cc1` [PPD derivative 14, 4-[[4-[4-[(4-hydroxyphenyl)methylamino]anilino]anilino]methyl]phenol] has an IC50 (HaCaT cells; 72 h, 72 h incubation, MTT) of 5.4 µM.

For `O=[N+]([O-])c1ccc(CNc2ccc(Nc3ccc(NCc4ccc([N+](=O)[O-])cc4)cc3)cc2)cc1` [PPD derivative 11, N^4-[(4-nitrophenyl)methyl]-N^1-[4-[(4-nitrophenyl)methylamino]phenyl]-benzene-1,4-diamine], the IC50 (HaCaT cells; 72 h, 72 h incubation, MTT) was 6.4 µM.

For `O=C1C=CC(=O)C=C1` [p-Benzoquinone, p-benzoquinone, reference compound], the “% of Lysine depletion, Avg” value ([1]; 20 min) was 21.0%, the “% of Lysine depletion, Rep 2” value ([1]; 20 min) was 20.6% and the “% of Lysine depletion, Rep 3” value ([1]; 20 min) was 20%. For the same compound, the “% of Lysine depletion, Rep 1” value ([1]; 20 min) was 22.5%, the “% of Lysine depletion, Avg” value ([1]; 24 h) was 88.7% and the “% of Lysine depletion, Rep 2” value ([1]; 24 h) was 87.5%. For the same compound, the “% of Lysine depletion, Rep 3” value ([1]; 24 h) was 91.6%, the “% of Lysine depletion, Rep 1” value ([1]; 24 h) was 87.0% and the “Reactivity Class” value ([1]; 20 min) was “Low”. For the same compound, the “Reactivity Class” value ([1]; 24 h) was “High”, the “% of Cysteine depletion, Avg” value ([2]; 20 min) was 72.8% and the “% of Cysteine depletion, Rep 2” value ([2]; 20 min) was 73.7%. For the same compound, the “% of Cysteine depletion, Rep 3” value ([2]; 20 min) was 72.0%, the “% of Cysteine depletion, Rep 1” value ([2]; 20 min) was 72.7% and the “% of Cysteine depletion, Avg” value ([2]; 24 h) was 89.7%. The “% of Cysteine depletion, Rep 2” value ([2]; 24 h) was 89.5%, the “% of Cysteine depletion, Rep 3” value ([2]; 24 h) was 90% and the “% of Cysteine depletion, Rep 1” value ([2]; 24 h) was 89.6%. For the same compound, the “Reactivity Class” value ([2]; 20 min) was “High” and the “Reactivity Class” value ([2]; 24 h) was “High”.

With `CC(C)(C)c1cc(O)ccc1O` [Tertbutylhydroquinone, reference compound] the IC50 (HaCaT cells; 72 h, 72 h incubation, MTT) was 27.9 µM.

`COc1cccc2c1C(=O)c1c(O)c3c(c(O)c1C2=O)C[C@@](O)(C(=O)CO)C[C@@H]3O[C@H]1C[C@H](N)[C@H](O)[C@H](C)O1` [Doxorubicin, reference compound] was tested, and the IC50 (HaCaT cells; 72 h, 72 h incubation, MTT) was < 0.39 µM.

With `CCOC(=O)/C=C\C(=O)OCC` [Diethylmaleate, reference compound] the IC50 (HaCaT cells; 72 h, 72 h incubation, MTT) was > 100 µM.

`OC[C@H]1O[C@@H](O[C@H]2[C@H](O)[C@@H](O)C(O)O[C@@H]2CO)[C@H](O)[C@@H](O)[C@H]1O` (some centres unmarked) [Lactose, reference compound] was tested, and the “% of Lysine depletion, Avg” value ([1]; 20 min) was 0%, the “% of Lysine depletion, Rep 2” value ([1]; 20 min) was 0% and the “% of Lysine depletion, Rep 3” value ([1]; 20 min) was 0%. The “% of Lysine depletion, Rep 1” value ([1]; 20 min) was 0%, the “% of Lysine depletion, Avg” value ([1]; 24 h) was 0% and the “% of Lysine depletion, Rep 2” value ([1]; 24 h) was 0%. For the same compound, the “% of Lysine depletion, Rep 3” value ([1]; 24 h) was 0%, the “% of Lysine depletion, Rep 1” value ([1]; 24 h) was 0% and the “Reactivity Class” value ([1]; 20 min) was “No or Minimal”. The “Reactivity Class” value ([1]; 24 h) was “No or Minimal”, the “% of Cysteine depletion, Avg” value ([2]; 20 min) was 0% and the “% of Cysteine depletion, Rep 2” value ([2]; 20 min) was 0%. For the same compound, the “% of Cysteine depletion, Rep 3” value ([2]; 20 min) was 0%, the “% of Cysteine depletion, Rep 1” value ([2]; 20 min) was 0% and the “% of Cysteine depletion, Avg” value ([2]; 24 h) was 0.6%. For the same compound, the “% of Cysteine depletion, Rep 2” value ([2]; 24 h) was 1%, the “% of Cysteine depletion, Rep 3” value ([2]; 24 h) was 1% and the “% of Cysteine depletion, Rep 1” value ([2]; 24 h) was 0%. For the same compound, the “Reactivity Class” value ([2]; 20 min) was “No or Minimal” and the “Reactivity Class” value ([2]; 24 h) was “No or Minimal”.

Work on `CC1=CC(=O)c2ccccc2C1=O` [Menadione, reference compound] yielded an IC50 (HaCaT cells; 72 h, 72 h incubation, MTT) of 3.56 µM.

Work on `CCC(C)(C)C(=O)O[C@H]1C[C@@H](C)C=C2C=C[C@H](C)[C@H](CC[C@@H]3C[C@@H](O)CC(=O)O3)[C@H]21` [Simvastatin, reference compound] yielded an IC50 (HaCaT cells) of 9.15 µM and an IC50 (HaCaT cells; 72 h, 72 h incubation, MTT) of 28.6 µM.
